Test results reported in patent US9926304B2, “1-(arylmethyl)quinazoline-2,4(1H,3H)-diones as PARP inhibitors and the use thereof” (Impact Therapeutics, Inc., priority 2011, dated 2018).

Assays:
[1] = tested on: SW620 human colorectal cancer cells; assay: MTT based cell viability assay: potentiation of the growth inhibiting activity of MMS; details: Homo sapiens, SW-620, 120 h, read-out: IC50 (nM), potentiation of the growth inhibiting activity of MMS, SW620 cells, 1.7 μg/ml MMS, 5 days (120 hours), MTT
Procedure: Briefly, SW620 human colorectal cancer cells were used to measure the cell growth inhibiting activity of DNA alkylating anticancer drug MMS. […] SW620 cells were grown and maintained in RPMI1640 (Gibco) medium supplemented with 10% FBS (Hyclone). In the first day of experiment, 4000 cells were seeded to each well of a 96-well cell culture plate and incubated at 37° C. and 5% CO2 in a cell culture incubator overnight. In the next day, the cell culture medium was removed. […] The serial dilutions of the reference compounds and the compounds to be tested were made with a 1:3 and 1:10 fashion in DMSO. The 10-fold concentrated solutions of these compounds were made by mixing 10 μl of the serial dilutions in DMSO with 90 μl fresh medium. The final concentration of DMSO in the medium was 1%. The cells were incubated at 37° C. in 5% CO2 cell culture incubator for additional 5 days (120 hours). Afterwards, the 96-well cell culture plate was taken out and 20 μl of MTT solution was added to each well and incubated at 37° C. for 4 h. The medium was removed and 100 μl DMSO was added to each well. The 96-well cell culture plates were shaked adequately for 10 min and read in a Varioskan Flash plate reader (Thermo Fisher Scientific) at 520 and 690 nm. The data were analyzed by Prism 5 software (GraphPad). The obtained 520 nm absorbance readings subtracting corresponding 690 nm reading were analyzed and plotted against the Log scale of the compound concentrations.

[2] = tested on: Human breast cancer cell line T47D; assay: Cell based caspase-3 activity assay: potentiation of MMS induced apoptosis; details: Homo sapiens, T47D, 24 h, T47D cells, 11.1 μg/ml MMS, 24 hours, intracellular caspase-3 activity; read-out: EC50 (nM), potentiation of the apoptosis inducing activity of MMS
From the text: Determination of the synergistic potentiation effect of 1-(3-(4-(pyrimidin-2-yl)piperazine-1-carbonyl)benzyl)quinazoline-2,4(1H,3H)-dione and analogs on MMS induced apoptosis using a cell based caspase-3 activity assay
Human breast cancer cell line T47D was used to determine the potentiation effect of PARP inhibitors on the apoptosis inducing activity of DNA damaging anticancer drugs such as MMS. Intracellular caspase-3 activity was used to measure cell apoptosis. The dose response effect of MMS to induce intracellular caspase activity was carefully titrated and the concentration that only induces a minimal level of caspase activity was used to test the potentiation effect of PARP inhibitors. Briefly, T47D cells were grown in DMEM/F12 cell culture medium (Hyclone) supplemented with 0.2 U/ml insulin (Genview) and 10% FBS (Hyclone). A day before experiment, 20000 of T47D cells were seeded to each well of a 96-well cell culture plate and maintained at 37° C. and 5% CO2 in a cell culture incubator overnight. On the day of experiment, cell culture medium was removed. One hundred and eighty μl of fresh medium containing 11.1 μg/ml MMS was added to each well and followed by 20 μl medium containing 10 folds of the concentrations of experimental drugs or reference compounds (ADZ2281 and ABT-888). The serial dilutions of the compounds to be tested and the reference compounds were made in a 1:3 and 1:10 fashion in DMSO. The 10-fold compound solutions were made by mixing 10 μl DMSO serial dilution solutions with 90 μl fresh growth medium. Twenty four hours later, the cells in the 96-well plates were centrifuged at 1000 g for 5 min and the supernatants were removed. Fifty μl lysis buffer (10 mM Tris, pH7.5, 0.1M NaCl, 1 mM EDTA, 0.01% Triton X-100) was added to each well and the plates were shaked horizontally for 30 min at 4° C. After centrifugation at 1000 g at 4° C. for 10 min, 20 μl of supernatant was transferred from each well to a corresponding well in a 384-well black plate. Twenty μl of buffer (20 mM PIPES, pH7.4, 4 mM EDTA and 0.2% CHAPS) containing 20 μM fluorescent caspase-3 substrate ((Ac-DEVD)2-R110, AnaSpec Cat #60304-5) was added to each well afterwards. The plates were shaked to uniformly mix the wells and incubated at 37° C. for 3 h. The fluorescence intensity was measured using the following wavelength: ex: 496 nm, em: 520 nm using a fluorescence plate reader (Varioskan Flash, Thermo Fisher Scientific). The caspase-3 activity induced by the compounds was expressed as a relative fluorescence unit (RFU). The obtained fluorescence readings were analyzed using a commercial graphic software (GraphPad Prism 5) and plotted against the Log value of the compound concentrations. The EC50 values were obtained by fitting the data points with the equation of Y (fluorescence reading)=minimal fluorescence reading+(maximal fluorescence reading−minimal fluorescence reading)/(1+10^(Log EC50−Log C)), where C is the concentration of the testing compound.
The synergistic potentiation effect of compounds on MMS induced apoptosis in T47D cells is expressed as EC50 values and listed in Table 2.

Q: What does the source list for `O=C(c1cc(Cn2c(=O)[nH]c(=O)c3cc(Cl)ccc32)ccc1F)N1CCN(C(=O)C2CCC2)CC1` [Example 169, 6-Chloro-1-(3-(4-(cyclobutylcarbonyl)piperazine-1-carbonyl)-4-fluorobenzyl)quinazoline-2,4(1H,3H)-dione]?
A: IC50 [1]: 3.4 nM; EC50 [2]: 1 nM

Q: Which results are given for `O=C(c1ccc(Cn2c(=O)[nH]c(=O)c3ccccc32)cc1)N1CCN(c2ccccn2)CC1` [Example 94, 1-(4-(4-(Pyridin-2-yl)piperazine-1-carbonyl)benzyl)quinazoline-2,4(1H,3H)-dione]?
A: IC50 [1]: > 10000 nM; EC50 [2]: > 10000 nM

Q: `O=C(c1ccc(F)c(Cn2c(=O)[nH]c(=O)c3cc(Cl)ccc32)c1)N1CCN(C(=O)C2CCC2)CC1` [Example 167, 6-Chloro-1-(3-(4-(cyclobutylcarbonyl)piperazine-1-carbonyl)-6-fluorobenzyl)quinazoline-2,4(1H,3H)-dione] was tested. Which IC50 [1] did it give?
A: The IC50 was 5.7 nM.

Q: And the EC50 [2]?
A: The EC50 was 5 nM.

Q: Which IC50 [1] does the source give for `O=C(c1cccc(Cn2c(=O)[nH]c(=O)c3ccc(F)cc32)c1)N1CCN(c2ncccn2)CC1` [Example 78, 7-Fluoro-1-(3-(4-(pyrimidin-2-yl)piperazine-1-carbonyl)benzyl)quinazoline-2,4(1H,3H)-dione] here?
A: The IC50 was 269 nM.

Q: And the EC50 [2]?
A: The EC50 was 112 nM.

Q: Which results are given for `O=C(c1cccc(Cn2c(=O)[nH]c3c(Cl)cccc3c2=O)c1)N1CCN(c2ncccn2)CC1` [Example 223, 8-Chloro-3-(3-(4-(pyrimidin-2-yl)piperazine-1-carbonyl)benzyl)quinazoline-2,4(1H,3H)-dione]?
A: IC50 [1]: > 10000 nM; EC50 [2]: > 10000 nM

Q: Which results are given for `O=C(c1cccc(Cn2c(=O)[nH]c(=O)c3ccccc32)c1)N1CCN(C(=O)c2cccs2)CC1` [Example 32, 1-(3-(4-(Thiophene-2-carbonyl)piperazine-1-carbonyl)benzyl)quinazoline-2,4(1H,3H)-dione]?
A: IC50 [1]: 106 nM; EC50 [2]: 96 nM

Q: Which results are given for `O=C(c1cccc(Cn2c(=O)[nH]c(=O)c3cccc(F)c32)c1)N1CCN(C(=O)C2CCCCC2)CC1` [Example 138, 1-(3-(4-(Cyclohexylcarbonyl)piperazine-1-carbonyl)benzyl)-8-fluoroquinazoline-2,4(1H,3H)-dione]?
A: IC50 [1]: 351 nM; EC50 [2]: 281 nM

Q: Which IC50 [1] does the source give for `O=C(c1cc(Cn2c(=O)[nH]c(=O)c3c(F)cccc32)ccc1F)N1CCC(c2ccccc2)CC1` [Example 214, 5-Fluoro-1-(4-fluoro-3-(4-phenylpiperidine-1-carbonyl)benzyl)quinazoline-2,4(1H,3H)-dione] here?
A: Its IC50 is 517 nM.

Q: What about the EC50 [2] of the same compound?
A: Its EC50 is 654 nM.

Q: `O=C(c1ccc(Cn2c(=O)[nH]c(=O)c3ccccc32)cc1)N1CCN(c2ncccn2)CC1` [Example 97, 1-(4-(4-(Pyrimidin-2-yl)piperazine-1-carbonyl)benzyl)quinazoline-2,4(1H,3H)-dione] was tested. Which IC50 [1] did it give?
A: Its IC50 is > 10000 nM.

Q: And the EC50 [2]?
A: Its EC50 is > 10000 nM.

Q: `O=C(c1ccc(F)c(Cn2c(=O)[nH]c(=O)c3cc(F)ccc32)c1)N1CCN(C(=O)C2CCC2)CC1` [Example 183, 1-(3-(4-(Cyclobutylcarbonyl)piperazine-1-carbonyl)-6-fluorobenzyl)-6-fluoroquinazoline-2,4(1H,3H)-dione] was tested. Which IC50 [1] did it give?
A: The IC50 was 13 nM.

Q: And the EC50 [2]?
A: Its EC50 is 6.1 nM.

Q: With `O=C(c1cccc(Cn2c(=O)[nH]c(=O)c3ccccc32)c1)N1CCN(C(=O)c2ccccn2)CC1` [Example 37, 1-(3-(4-(Pyridine-2-carbonyl)piperazine-1-carbonyl)benzyl)quinazoline-2,4(1H,3H)-dione] as the compound, how does the IC50 [1] read?
A: The IC50 was > 10000 nM.

Q: And the EC50 [2]?
A: Its EC50 is 1910 nM.

Q: Which results are given for `Cc1cccc2c(=O)[nH]c(=O)n(Cc3cccc(C(=O)N4CCN(c5ncccn5)CC4)c3)c12` [Example 226, 8-Methyl-1-(3-(4-(pyrimidin-2-yl)piperazine-1-carbonyl)benzyl)quinazoline-2,4(1H,3H)-dione]?
A: IC50 [1]: 84 nM; EC50 [2]: 24 nM

Q: `O=C(c1ccc(F)c(Cn2c(=O)[nH]c(=O)c3c(Cl)cccc32)c1)N1CCN(C(=O)C2CCCCC2)CC1` [Example 108, 5-Chloro-1-(3-(4-(cyclohexylcarbonyl)piperazine-1-carbonyl)-6-fluorobenzyl)quinazoline-2,4(1H,3H)-dione] was tested. Which IC50 [1] did it give?
A: The IC50 was 78 nM.

Q: And the EC50 [2]?
A: Its EC50 is 68 nM.

Q: What does the source list for `O=C(c1cccc(CCn2c(=O)[nH]c(=O)c3ccccc32)c1)N1CCN(c2ncccn2)CC1` [Example 229, 1-(3-(4-(Pyrimidin-2-yl)piperazine-1-carbonyl)phenethyl)quinazoline-2,4(1H,3H)-dione]?
A: IC50 [1]: > 10000 nM; EC50 [2]: > 10000 nM

Q: What does the source list for `O=C(c1ccc(F)c(Cn2c(=O)[nH]c(=O)c3c(F)cccc32)c1)N1CCN(C(=O)c2cccs2)CC1` [Example 156, 5-Fluoro-1-(6-fluoro-3-(4-(thiophene-2-carbonyl)piperazine-1-carbonyl)benzyl)quinazoline-2,4(1H,3H)-dione]?
A: IC50 [1]: 28 nM; EC50 [2]: 14 nM

Q: For `O=C(c1ccc(F)c(Cn2c(=O)[nH]c(=O)c3c(F)cccc32)c1)N1CCN(C(=O)C2CCC2)CC1` [Example 182, 1-(3-(4-(Cyclobutylcarbonyl)piperazine-1-carbonyl)-6-fluorobenzyl)-5-fluoroquinazoline-2,4(1H,3H)-dione], which IC50 [1] is on record?
A: Its IC50 is 16 nM.

Q: What about the EC50 [2] of the same compound?
A: The EC50 was 14 nM.

Q: What does the source list for `O=C(c1cccc(Cn2c(=O)[nH]c(=O)c3ccccc32)c1)N1CCN(CC2CCCC2)CC1` [Example 74, 1-(3-(4-(Cyclopentylmethyl)piperazine-1-carbonyl)benzyl)quinazoline-2,4(1H,3H)-dione]?
A: IC50 [1]: > 10000 nM; EC50 [2]: 2110 nM

Q: Which results are given for `O=C(c1cccc(Cn2c(=O)[nH]c(=O)c3ccccc32)c1)N1CCC(Oc2ccccc2)CC1` [Example 39, 1-(3-(4-Phenoxypiperidine-1-carbonyl)benzyl)quinazoline-2,4(1H,3H)-dione]?
A: IC50 [1]: 604 nM; EC50 [2]: 614 nM

Q: `O=C(c1ccoc1)N1CCN(C(=O)c2cccc(Cn3c(=O)[nH]c(=O)c4ccccc43)c2)CC1` [Example 34, 1-(3-(4-(Furan-3-carbonyl)piperazine-1-carbonyl)benzyl)quinazoline-2,4(1H,3H)-dione] was tested. Which IC50 [1] did it give?
A: The IC50 was 294 nM.

Q: What about the EC50 [2] of the same compound?
A: The EC50 was 104 nM.

Q: Which IC50 [1] does the source give for `O=C(c1cccc(Cn2c(=O)[nH]c(=O)c3cc(Cl)ccc32)c1)N1CCN(C(=O)c2cccs2)CC1` [Example 115, 6-Chloro-1-(3-(4-(thiophene-2-carbonyl)piperazine-1-carbonyl)benzyl)quinazoline-2,4(1H,3H)-dione] here?
A: The IC50 was 19 nM.

Q: And the EC50 [2]?
A: The EC50 was 23 nM.

Q: `O=C(c1cccc(Cn2c(=O)[nH]c(=O)c3ccc(F)cc32)c1)N1CCN(C(=O)C2CCCC2)CC1` [Example 77, 1-(3-(4-(Cyclopentylcarbonyl)piperazine-1-carbonyl)benzyl)-7-fluoroquinazoline-2,4(1H,3H)-dione] was tested. Which IC50 [1] did it give?
A: Its IC50 is 2960 nM.

Q: And the EC50 [2]?
A: Its EC50 is 5210 nM.

Q: How did the IC50 [1] turn out when `COc1cccc2c(=O)[nH]c(=O)n(Cc3cccc(C(=O)N4CCN(c5ncccn5)CC4)c3)c12` [Example 227, 8-Methoxy-1-(3-(4-(pyrimidin-2-yl)piperazine-1-carbonyl)benzyl)quinazoline-2,4(1H,3H)-dione] was run?
A: Its IC50 is 13 nM.

Q: What about the EC50 [2] of the same compound?
A: Its EC50 is 40 nM.

Q: Which results are given for `O=C(c1cc(Cn2c(=O)[nH]c(=O)c3c(F)cccc32)ccc1[N+](=O)[O-])N1CCN(c2ncccn2)CC1` [Example 211, 5-Fluoro-1-(4-nitro-3-(4-(pyrimidin-2-yl)piperazine-1-carbonyl)benzyl)quinazoline-2,4(1H,3H)-dione]?
A: IC50 [1]: 145 nM; EC50 [2]: 166 nM

Q: How did the EC50 [2] turn out when `O=C(c1cc(Cn2c(=O)[nH]c(=O)c3cc(Cl)ccc32)ccc1F)N1CCN(C(=O)C2CC2)CC1` [Example 122, 6-Chloro-1-(3-(4-(cyclopropylcarbonyl)piperazine-1-carbonyl)-4-fluorobenzyl)quinazoline-2,4(1H,3H)-dione] was run?
A: Its EC50 is 8.4 nM.

Q: With `O=C(NC1CCCCC1)N1CCN(C(=O)c2cccc(Cn3c(=O)[nH]c(=O)c4ccccc43)c2)CC1` [Example 191, 1-(3-(4-(Cyclohexylcarbamoyl)piperazine-1-carbonyl)benzyl)quinazoline-2,4(1H,3H)-dione] as the compound, how does the IC50 [1] read?
A: The IC50 was 192 nM.
